Test results published in PubChem BioAssay AID1963970 (Molecular Pharmacology Branch, DTP, NCI, 2024).
“And” between values parts separate entries of the source, which are not always exact repeats. Equal values may be shown once.

System: 931267-113-T-J1-PDC multicell spheroid viability
Test: Anticancer human tumor 931267-113-T-J1-PDC patient-derived colon adenocarcinoma cell line growth inhibition [PI3K]
Conditions: for viability, T/C: stronger effect = lower value
From the text: Combinatorial screen of targeted agents with the PI3K inhibitors inavolisib, alpelisib, duvelisib, and copanlisib in multi-cell type tumor spheroids
A high-throughput screen of multi-cell type tumor spheroids was designed to identify active combinations of targeted small molecules and PI3K pathway inhibitors. Complex spheroids include a stromal component modeled by human endothelial cells (HUVEC) and fibroblasts modeled by human mesenchymal stem cells (MSCs). The concentration ranges selected for each drug and investigational agent were based upon clinically achievable concentrations if the clinical Cmax of the agent was known.
Compounds. The drugs and investigational agents: inavolisib (NSC800729), alpelisib (NSC765974), duvelisib (NSC772469), copanlisib (NSC816437), ipatasertib (NSC767898), afuresertib (NSC778305), talazoparib (NSC767125), sapanisertib (NSC764658), selumetinib (NSC741078), tovorafenib (DAY101, NSC766906), vemurafenib (NSC761431), ravoxertinib (NSC781343), sotorasib (NSC818433), MRTX1133 (NSC 836407), abemaciclib (NSC 768073), palbociclib (NSC758247), venetoclax (NSC 766270), SY5609 (NSC837396), enzalutamide (NSC755605), and darolutamide (NSC825331), were obtained from the National Cancer Institute (NCI) Developmental Therapeutics Program Chemical Repository. The FDA-approved anticancer drug set is available from the NCI Developmental Therapeutics Program. […] The stock solutions were prepared in dimethyl sulfoxide (DMSO, Sigma-Aldrich, St. Louis, MO, cat. D2650) at 800-fold the tested concentration and stored at -70 degrees C prior to their use. All drugs and investigational agents were tested over a range starting from a high concentration at or near the clinical Cmax and decreasing in half-log increments. If the clinical Cmax for an agent had not been determined, the highest concentration tested was 10 microM.
Cell Culture. All cells were maintained in an incubator at 37 degrees C and 5% CO2 with 95% humidity. The PDC lines were cultured according to standard operating procedures established by the NCI PDMR (https://pdmr.cancer.gov/sops/default.htm). All PDCs were thawed and cultured in Matrigel-coated flasks prepared with a working solution of 1X Ham's F-12 nutrient mix, without supplementation (Invitrogen, Waltham, MA, cat. 11765054), 100 U/mL penicillin-streptomycin (Invitrogen, cat. 15140122), and 2.5% Matrigel (Corning Inc., Corning, NY, cat. 354248) for the first three passages. The 354836-022-R-J1-PDC, 475296-252-R-J1-PDC, and 997726-040-R-J2-PDC lines were cultured in 6A media, which includes advanced DMEM/F-12 (Thermo Fisher Scientific, cat. 12634028), 10 mM HEPES (Thermo Fisher Scientific, cat. 15630080), 1X GlutaMAX supplement (Thermo Fisher Scientific, cat. 35050061), 0.1 mg/mL primocin (InvivoGen, San Diego, CA, cat. ant-pm-2), 10% defined fetal bovine serum, heat inactivated (HyClone Laboratories Inc., Logan, UT, cat. SH30070.03HI), 50% L-WRN conditioned media (ATCC, cat. CRL-3276), 1.25 mM N-Acetyl-L-cysteine (Sigma-Aldrich, cat. A9165), 10 mM nicotinamide (Sigma-Aldrich, cat. N0636), 1X B-27 supplement (Thermo Fisher Scientific, cat. 17504044), 1X N-2 supplement (Thermo Fisher Scientific, cat. 17502048), and 10 microM Y-27632 dihydrochloride (Tocris Bioscience, Bristol, United Kingdom, cat. 1254). The 624824-186-R-J2-PDC line was cultured in 6C/Colon 1B media, which includes all 6A media components plus 50 ng/mL human EGF recombinant protein (Thermo Fisher Scientific, cat. PHG0311). […]

[1] = curve of first compound, second compound 0.0316 µM
[2] = curve of first compound, second compound 0.1 µM
[3] = curve of first compound, second compound 0.316 µM
[4] = curve of first compound, second compound 1 µM
[5] = curve of first compound, second compound 3.16 µM
[6] = curve of first compound, second compound 10 µM
[7] = second compound 0.0316 µM, first compound 0.0316 µM
[8] = second compound 0.0316 µM, first compound 0.1 µM
[9] = second compound 0.1 µM, first compound 0.0316 µM
[10] = second compound 0.1 µM, first compound 0.1 µM
[11] = second compound 0.316 µM, first compound 0.0316 µM
[12] = second compound 0.316 µM, first compound 0.1 µM
[13] = second compound 1 µM, first compound 0.0316 µM
[14] = second compound 1 µM, first compound 0.1 µM
[15] = second compound 3.16 µM, first compound 0.0316 µM
[16] = second compound 3.16 µM, first compound 0.1 µM
[17] = second compound 10 µM, first compound 0.0316 µM
[18] = second compound 10 µM, first compound 0.1 µM
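Note: viability read 7 days after compound addition.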

`CC(C)n1nc(-c2ccc3oc(N)nc3c2)c2c(N)ncnc21` + CC(Nc1ncnc2nc[nH]c12)c1cc2cccc(Cl)c2c(=O)n1-c1ccccc1 was tested, and the IC50 [1] was over 0.1 µM, the IC50 [2] was over 0.1 µM and the IC50 [3] was over 0.1 µM. For the same molecule, the IC50 [4] was over 0.1 µM, the IC50 [5] was over 0.1 µM and the IC50 [6] was over 0.1 µM. For the same molecule, the viability, T/C (second compound 0.0316 µM, first compound 0.000316 µM) was 101%, the viability, T/C (second compound 0.0316 µM, first compound 0.001 µM) was 103% and the viability, T/C (second compound 0.0316 µM, first compound 0.00316 µM) was 97.8%. The viability, T/C (second compound 0.0316 µM, first compound 0.01 µM) was 88.7%, the viability, T/C [7] was 92.6% and the viability, T/C [8] was 51.7%. The viability, T/C (second compound 0.1 µM, first compound 0.000316 µM) was 106%, the viability, T/C (second compound 0.1 µM, first compound 0.001 µM) was 104% and the viability, T/C (second compound 0.1 µM, first compound 0.00316 µM) was 92.7%. It also gave a viability, T/C (second compound 0.1 µM, first compound 0.01 µM) of 89.5%, a viability, T/C [9] of 79.8% and a viability, T/C [10] of 55.8%. The viability, T/C (second compound 0.316 µM, first compound 0.000316 µM) was 113%, the viability, T/C (second compound 0.316 µM, first compound 0.001 µM) was 105% and the viability, T/C (second compound 0.316 µM, first compound 0.00316 µM) was 93%. It also gave a viability, T/C (second compound 0.316 µM, first compound 0.01 µM) of 94.2%, a viability, T/C [11] of 86.5% and a viability, T/C [12] of 54.1%. For the same molecule, the viability, T/C (second compound 1 µM, first compound 0.000316 µM) was 95.6%, the viability, T/C (second compound 1 µM, first compound 0.001 µM) was 98% and the viability, T/C (second compound 1 µM, first compound 0.00316 µM) was 91%. It also gave a viability, T/C (second compound 1 µM, first compound 0.01 µM) of 92.2%, a viability, T/C [13] of 87.5% and a viability, T/C [14] of 57%. It also gave a viability, T/C (second compound 3.16 µM, first compound 0.000316 µM) of 93.8%, a viability, T/C (second compound 3.16 µM, first compound 0.001 µM) of 95% and a viability, T/C (second compound 3.16 µM, first compound 0.00316 µM) of 88.4%. The viability, T/C (second compound 3.16 µM, first compound 0.01 µM) was 88.8%, the viability, T/C [15] was 81.8% and the viability, T/C [16] was 52.5%. For the same molecule, the viability, T/C (second compound 10 µM, first compound 0.000316 µM) was 87.5%, the viability, T/C (second compound 10 µM, first compound 0.001 µM) was 83.9% and the viability, T/C (second compound 10 µM, first compound 0.00316 µM) was 91.6%. The viability, T/C (second compound 10 µM, first compound 0.01 µM) was 84.3%, the viability, T/C [17] was 74.8% and the viability, T/C [18] was 58.9%.
Molecule `CC1(C)CCC(CN2CCN(c3ccc(C(=O)NS(=O)(=O)c4ccc(NCC5CCOCC5)c([N+](=O)[O-])c4)c(Oc4cnc5[nH]ccc5c4)c3)CC2)=C(c2ccc(Cl)cc2)C1` + CC(Nc1ncnc2nc[nH]c12)c1cc2cccc(Cl)c2c(=O)n1-c1ccccc1 has an IC50 [1] of 7.07 µM, an IC50 [2] of 7.1 µM and an IC50 [3] of 7.17 µM. The IC50 [4] was 6.84 µM, the IC50 [5] was 7.09 µM and the IC50 [6] was 6.79 µM. The viability, T/C [7] was 105%, the viability, T/C [8] was 105% and the viability, T/C (second compound 0.0316 µM, first compound 0.316 µM) was 102%. It also gave a viability, T/C (second compound 0.0316 µM, first compound 1 µM) of 110%, a viability, T/C (second compound 0.0316 µM, first compound 3.16 µM) of 99.3% and a viability, T/C (second compound 0.0316 µM, first compound 10 µM) of 28.5%. For the same molecule, the viability, T/C [9] was 113%, the viability, T/C [10] was 112% and the viability, T/C (second compound 0.1 µM, first compound 0.316 µM) was 105%. The viability, T/C (second compound 0.1 µM, first compound 1 µM) was 106%, the viability, T/C (second compound 0.1 µM, first compound 3.16 µM) was 107% and the viability, T/C (second compound 0.1 µM, first compound 10 µM) was 25.9%. It also gave a viability, T/C [11] of 103%, a viability, T/C [12] of 98.2% and a viability, T/C (second compound 0.316 µM, first compound 0.316 µM) of 106%. It also gave a viability, T/C (second compound 0.316 µM, first compound 1 µM) of 110%, a viability, T/C (second compound 0.316 µM, first compound 3.16 µM) of 101% and a viability, T/C (second compound 0.316 µM, first compound 10 µM) of 29.1%. It also gave a viability, T/C [13] of 105%, a viability, T/C [14] of 101% and a viability, T/C (second compound 1 µM, first compound 0.316 µM) of 95.3%. It also gave a viability, T/C (second compound 1 µM, first compound 1 µM) of 103%, a viability, T/C (second compound 1 µM, first compound 3.16 µM) of 92.4% and a viability, T/C (second compound 1 µM, first compound 10 µM) of 28.9%. For the same molecule, the viability, T/C [15] was 101%, the viability, T/C [16] was 107% and the viability, T/C (second compound 3.16 µM, first compound 0.316 µM) was 97.4%. It also gave a viability, T/C (second compound 3.16 µM, first compound 1 µM) of 107%, a viability, T/C (second compound 3.16 µM, first compound 3.16 µM) of 99.3% and a viability, T/C (second compound 3.16 µM, first compound 10 µM) of 29%. It also gave a viability, T/C [17] of 92.9%, a viability, T/C [18] of 87.7% and a viability, T/C (second compound 10 µM, first compound 0.316 µM) of 98.4%. It also gave a viability, T/C (second compound 10 µM, first compound 1 µM) of 97.3%, a viability, T/C (second compound 10 µM, first compound 3.16 µM) of 92.6% and a viability, T/C (second compound 10 µM, first compound 10 µM) of 28.4%.
`C#Cc1c(F)ccc2cc(O)cc(-c3ncc4c(N5CC6CCC(C5)N6)nc(OCC56CCCN5CC(F)C6)nc4c3F)c12` (stereo unspecified) was tested, and the viability, T/C (compound 0.0316 µM) was 85% [middle of 4 runs], the viability, T/C (compound 0.1 µM) was 71.4% [middle of 4 runs] and the viability, T/C (compound 0.316 µM) was 58.2% [middle of 4 runs]. For the same molecule, the viability, T/C (compound 1 µM) was 44.2% [middle of 4 runs], the viability, T/C (compound 3.16 µM) was 36.2% [middle of 4 runs] and the viability, T/C (compound 10 µM) was 24% and 25.4% and 23.7% (2×). For the same molecule, the IC50 (curve of compound) was 670 nM [middle of 4 runs].
